This note sets out measurements from patent publication US20230022880A1, “Antimicrobial Composition” (INSTITUTE OF TECHNOLOGY SLIGO, priority 2019, published 2023).

This experiment deals with several species of micro-organisms (Candida spp, Pseudomonas spp, E. coli). Put plainly: Well diffusion bioassay, zones of inhibition. Format: cell-based. The following applies: NaCl tested on its own. How it is done: Escherichia coli (NCIMB 8545), Staphylococcus aureus (NCIMB 9518) and Pseudomonas aeruginosa (NCIMB 8626) are grown on nutrient agar or in nutrient broth for 24 hrs at 37° C.
Candida albicans (NCIMB 3179) and Saccharomyces cerevisiae are grown on sabaroud dextrose agar or in sabaroud dextrose broth for 24 hrs at 37° C. […]
Bacterial growth is monitored by measuring the culture optical density (OD) in a spectrophotometer (Anthos 2010) at a wavelength of 620 nm.
The formulations were assessed for antimicrobial activity against several species of micro-organisms (several of which produce catalase; Candida spp, Pseudomonas spp, E. coli) using the well diffusion bioassay, results were obtained by measuring the zones of inhibition (n=3).
Agar plates are inoculated by swabbing overnight culture onto the plate surface. Plates are allowed to stand at room temperature for 15 minutes before use. Wells 8.2 mm diameter are bored into the surface of the agar. A 180 μl sample is placed into each well. The samples diffuse into the agar around the well and are assayed for an ability to produce a zone of inhibition. Plates are incubated for 24, 48 or 72 hrs and zones of inhibition are measured using an Autodata automatic zone reader. The diameter of zones, including the diameter of the well (8.2 mm), is recorded. […]
On the technique in general: In agar diffusion tests the substance spreads into inoculated agar from a disc or well.

Consider `[Cl-].[Na+]` [NaCl, sodium chloride], for which the Antimicrobial activity entry is given as “no discernible activity”.
